According to patent US10258038B2, “Use of heterocyclic compounds for controlling nematodes” (BAYER CROPSCIENCE AKTIENGESELLSCHAFT, priority 2014, dated 2019):
Like-named read-outs stand apart in the source and are kept apart here.

How the values were obtained:
[1] = tested on: Pratylenchus penetrans; assay: Pratylenchus penetrans test (soil application); format: in vivo; conditions: corn (Zea mays), after 2 weeks
Method: Pratylenchus penetrans—Test (Soil Application)
(§1) Solvent: 4 parts by weight acetone
(§2) Emulsifier: 1 part by weight alkylaryl polyglycol ether
(§3) To produce a suitable preparation of active compound, 1 part by weight of active compound is mixed with solvent and emulsifier at the ratio 4:1 and is diluted with water to the desired concentration.
This compound solution is mixed with 500 ml soil infected with Pratylenchus penetrans (800 nematodes per 100 ml). The stated concentration refers to the amount of compound per unit of volume soil (mg/1=ppm). The treated soil is filled into 500 ml pots and 3 corn seeds (Zea mays) are sown.
(§4) After 2 weeks the number of nematodes in the corn roots is determined by means of maceration. The roots are cleaned with water, cut into about 1 cm pieces and minced with water in a mixer for 10-15 seconds. The pieces are poured over a 0.2 mm-nematode sieve, rinsed with 400 ml water and the flow rate is collected. After 6 hours the supernatant is aspirated and the number of nematodes is determined microscopically with a counting chamber.
(§5) The average number of nematodes per pot is determined and efficieny is calculated by using Abbott's formula:
(§6) C=untreated control plants

[2] = tested on: Pratylenchus zeae; assay: Pratylenchus zeae test (PRATZE soil application); format: in vivo; conditions: application rate 2 ppm in soil; corn (Zea mays); after 2 weeks
Method: Pratylenchus zeae—Test (PRATZE Soil Application)
as §1, §2, §3
This compound solution is mixed with 500 ml soil infected with Pratylenchus zeae (800 nematodes per 100 ml). The stated concentration refers to the amount of compound per unit of volume soil (mg/1=ppm). The treated soil is filled into 500 ml pots and 3 corn seeds (Zea mays) are sown.
as §4, §5, §6

[3] = tested on: Radopholus similis; assay: Radopholus similis test (soil application); format: in vivo; conditions: application rate 2 ppm in soil; banana seedling; after 2 weeks
Method: Radopholus similis—Test (Soil Application)
as §1, §2, §3
This compound solution is mixed with soil. The stated concentration refers to the amount of compound per unit of volume soil (mg/1=ppm). The treated soil is filled into 250 ml pots and a banana seedling is planted. Afterwards 2.5 ml of a nematode suspension (500 Radopholus similis/ml) are applied.
After 2 weeks the number of nematodes in the banana roots is determined by means of maceration. The roots are cut off, cleaned with water and after adding 25-40 ml 0.01% lactic acid—acid fuchsin solution they are boiled in a microwave. On the next day the roots are rinsed over a 0.025 mm-nematode sieve, roughly minced and macerated with 15-20 ml water in an Ultra Turrax. After filling up with water to 45 ml, the number of nematodes in the supernatant is determined microscopically with a counting chamber.
as §5, §6

[4] = tested on: Globodera rostochiensis; assay: Globodera rostochiensis test (soil application); format: in vivo; conditions: application rate 2 ppm in soil; potato seedling; after six weeks
Method: Globodera rostochiensis—Test (Soil Application)
as §1, §2
as §3, with “concentration. This compound composition is mixed with soil. The stated concentration refers to the amount of compound per unit of volume soil (mg/1=ppm).” for “concentration.”
450 ml of this compound composition is mixed with 50 ml of soil infected with Globodera rostochiensis (20.000 nematodes/100 ml), filled in 500 ml pots and a potato seedling is planted.
After six weeks the average number of cysts in the potato roots per pot are determined and efficieny is calculated by using Abbott's formula:
as §6

[5] = tested on: Meloidogyne incognita; assay: Meloidogyne incognita in tomato test (MELGIN soil application); format: in vivo; conditions: application rate 2 ppm in soil; tomato seedling (Solanum lycopersicum); after five weeks
Method: Meloidogyne incognita in Tomato—Test (MELGIN Soil Application)
as §1, §2
To produce a suitable preparation of active compound, 1 part by weight of active compound is mixed with solvent and emulsifier at the ratio 4:1 and is diluted with water to the desired concentration. The stated concentration refers to the amount of compound per unit of volume soil (mg/1=ppm).
This compound composition is mixed with 500 ml of soil and 4 ml of a nematode suspension (1000 differenciated eggs and larvae of Meloidogyne incognita/ml). The stated concentration refers to the amount of compound per unit of volume soil (mg/1=ppm). The treated soil is filled in 500 ml pots and a tomato seedling (Solanum lycopersicum) is planted.
After five weeks the average number of galls in the tomato roots per pot are determined and efficieny is calculated by using Abbott's formula:
as §6

[6] = physchem; format: physicochemical; conditions: reversed-phase C18, acidic range pH 3.4 (formic acid), 55° C.; for chromatographic logP: read-out: log P
Method: 1) Description of Method for Determination of the log P Values (Formic Acid Method)
Eluents for determination in the acidic range (pH 3.4):
Eluent A: acetonitrile+1 ml of formic acid/liter. Eluent B: water+0.9 ml of formic acid/liter.
The lambda max values were determined in the maxima of the chromatographic signals using the UV spectra from 200 nm to 400 nm.

log P ([6]; HPLC) | Structure (SMILES) | activity (efficiency by Abbott's formula, number of cysts in potato roots) [4] [%] | other results
 | O=C(Nc1ccn(-c2c(F)cccc2F)n1)c1ccccc1C(F)(F)F [Compound I-1-75, N-[1-(2,6-difluorophenyl)-1H-pyrazol-3-yl]-2-(trifluoromethyl)benzamide] | 100 | activity (efficiency by Abbott's formula, number of nematodes in corn roots) ([1]; application rate 2 ppm in soil): 88%; activity (efficiency by Abbott's formula, number of nematodes in corn roots) [2]: 89%; activity (efficiency by Abbott's formula, number of nematodes in banana roots) [3]: 90%; activity (efficiency by Abbott's formula, number of galls in tomato roots) [5]: 100%; chromatographic logP ([6]; HPLC): 2.68
 | CCN(C(=O)c1ccccc1C(F)(F)F)c1ccn(-c2ncc(F)cc2F)n1 [Compound I-1-468, N-[1-(3,5-difluoropyridin-2-yl)-1H-pyrazol-3-yl]-N-ethyl-2-(trifluoromethyl)benzamide] | 100 | chromatographic logP ([6]; reversed-phase C18 HPLC column): 3.23
 | N#Cc1nccnc1-n1ccc(NC(=O)c2ccccc2C(F)(F)F)n1 [Compound I-1-574, N-[1-(3-Cyanopyrazin-2-yl)-1H-pyrazol-3-yl]-2-(trifluoromethyl)benzamide] | 80 | activity (efficiency by Abbott's formula, number of nematodes in corn roots) ([1]; application rate 4 ppm in soil): 97%
1.46 | CC(=O)NC1=NN(c2c(F)cccc2F)CC1 [Ia-2, N-[1-(2,6-Difluorophenyl)-4,5-dihydro-1H-pyrazol-3-yl]acetamide] |  | 
1.33 | CC(=O)Nc1ccn(-c2c(F)cccc2F)n1 [Ia-3, N-[1-(2,6-Difluorophenyl)-1H-pyrazol-3-yl]acetamide] |  | 
1.13 | Nc1ccn(-c2c(F)cccc2F)n1 [Ia-4, 1-(2,6-Difluorophenyl)-1H-pyrazole-3-amine] |  | 
0.81 | Nc1ccn(-c2ncc(F)cc2F)n1 [Ib-1, 1-(3,5-Difluoropyridin-2-yl)-1H-pyrazole-3-amine] |  | 
1.16 | Nc1cnn(-c2c(F)cccc2F)n1 [Ic-8, 2-(2,6-Difluorophenyl)-2H-1,2,3-triazole-4-amine] |  | 

Structure (SMILES) | log P ([6]; HPLC) | activity (efficiency by Abbott's formula, number of cysts in potato roots) [4] [%] | other results
O=C(Nc1cnn(-c2c(F)cccc2F)n1)c1ccccc1C(F)(F)F [Compound I-2-35, N-[2-(2,6-Difluorophenyl)-2H-1,2,3-triazol-4-yl]-2-(trifluoromethyl)benzamide] | 2.80 | 100 | activity (efficiency by Abbott's formula, number of nematodes in corn roots) ([1]; application rate 2 ppm in soil): 90%; activity (efficiency by Abbott's formula, number of galls in tomato roots) [5]: 100%
